{
  "source": "patent US20210186989A1",
  "about": "“ENHANCED TRAINED IMMUNITY IN MYELOID CELLS BY SHIP-1 INHIBITION” (CENTRO NACIONAL DE INVESTIGACIONES CARDIOVASCULARES CARLOS …, priority 2018, published 2021)",
  "key": {"mouse BMDMs": {"system": "mouse BMDMs", "test": "BMDM viability in the training scheme (FACS, Hoechst 33258 exclusion)", "assay_type": "cell-based", "experimental": "To assess receptor expression and cell viability, 6·10^5 BMDMs were plated in non-treated 24-well plates (1200-μl final volume, Corning) and followed the training scheme described above. Dectin-1 expression was evaluated at day 0 prior to β-glucan addition. Cell viability and TLR4 expression were assessed on day 5 before LPS stimulation. At indicated times, cells were collected in PBS/EDTA and stained on ice-cold FACS Buffer (PBS/EDTA plus 3% FBS) for flow cytometry analysis.\nSamples were stained with the appropriate antibody cocktails in ice-cold FACS Buffer at 4° C. for 15 minutes. Antibodies included mouse PE-anti-TLR4 (BioLegend, San Diego, Calif.) and APC-anti-Dectin-1 (Bio-Rad). Dead cells were excluded by Hoechst 33258 (Invitrogen, Carlsbad, Calif.) incorporation. Purified anti-FcγRIII/II (2.4G2, TONBO Bioscience, San Diego, Calif.) was used to block murine Fc-receptors at 4° C. for 10 minutes in all the stainings. Events were acquired using FACSCanto 3L (BD Biosciences). Data were analyzed with FlowJo software (Tree Star, Ashland, Oreg.)."}, "SHIP-1": {"molecular_target": "T1, SHIP-1 (Homo sapiens, UniProt Q92835)", "T1 sequence (Q92835 1-1189)": "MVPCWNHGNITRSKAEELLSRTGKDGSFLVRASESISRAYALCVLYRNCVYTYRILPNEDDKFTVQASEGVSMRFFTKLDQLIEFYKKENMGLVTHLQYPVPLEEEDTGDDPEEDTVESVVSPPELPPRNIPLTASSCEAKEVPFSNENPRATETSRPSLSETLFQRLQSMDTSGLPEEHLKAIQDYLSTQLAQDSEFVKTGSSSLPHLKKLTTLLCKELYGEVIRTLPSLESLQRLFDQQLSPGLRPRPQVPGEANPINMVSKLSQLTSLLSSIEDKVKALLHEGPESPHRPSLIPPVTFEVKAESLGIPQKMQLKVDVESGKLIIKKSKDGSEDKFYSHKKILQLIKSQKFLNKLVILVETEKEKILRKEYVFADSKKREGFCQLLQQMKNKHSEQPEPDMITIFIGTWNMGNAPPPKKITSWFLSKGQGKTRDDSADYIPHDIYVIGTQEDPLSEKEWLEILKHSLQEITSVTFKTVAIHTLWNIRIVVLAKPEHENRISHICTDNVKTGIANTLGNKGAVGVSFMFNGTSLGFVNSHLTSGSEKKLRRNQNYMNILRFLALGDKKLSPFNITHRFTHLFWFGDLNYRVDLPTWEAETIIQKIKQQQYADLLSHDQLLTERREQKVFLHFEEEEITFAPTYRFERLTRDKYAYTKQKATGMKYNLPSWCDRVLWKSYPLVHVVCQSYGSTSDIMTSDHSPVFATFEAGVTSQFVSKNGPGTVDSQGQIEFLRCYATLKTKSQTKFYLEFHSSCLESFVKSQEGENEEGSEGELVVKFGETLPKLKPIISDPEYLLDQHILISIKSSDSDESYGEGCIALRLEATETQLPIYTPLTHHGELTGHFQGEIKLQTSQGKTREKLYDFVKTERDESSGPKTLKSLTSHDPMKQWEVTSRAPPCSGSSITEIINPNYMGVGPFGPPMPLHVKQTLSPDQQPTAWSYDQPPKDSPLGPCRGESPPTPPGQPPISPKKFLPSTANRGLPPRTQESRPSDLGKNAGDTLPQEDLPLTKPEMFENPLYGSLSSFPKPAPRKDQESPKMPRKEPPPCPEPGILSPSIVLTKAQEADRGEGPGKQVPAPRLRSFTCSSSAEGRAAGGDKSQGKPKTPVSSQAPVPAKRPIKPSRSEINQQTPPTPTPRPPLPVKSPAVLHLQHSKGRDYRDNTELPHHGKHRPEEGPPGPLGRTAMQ", "conditions": "SHIP-1 inhibitor 3AC; value given in parentheses, no test described; cited from earlier work"}, "[1]": {"system": "mouse bone marrow-derived macrophages (BMDMs)", "test": "Trained immunity in vitro model, TNFα by ELISA after LPS", "assay_type": "cell-based", "conditions": "for boost of trained immunity (TNF alpha) in absence of SHIP-1: LysMΔSHIP-1 BMDMs, beta-glucan-trained, 30 min pre-incubation; for TNF-alpha overproduction in trained LysMΔSHIP-1 BMDMs: 30 min pre-incubation before beta-glucan training", "experimental": "BMDMs (10^5) were plated in 96-well plates (200-μl final volume, Corning) and stimulated with R10 or 100 μg/ml β-glucan (whole glucan particles, WGP, Biothera, Eagan, Minn.) for 24h. Then, cells were washed and rested 3 days in culture medium. At day 4, BMDMs were washed again and primed with 25 ng/ml IFNγ (BD Biosciences, San Jose, Calif.) for 24h. On day 5, a final wash was performed and cells were stimulated with R10 or 1 μg/ml Escherichia coli LPS (EK, Invivogen, San Diego, Calif.). After 24h, supernatants were collected for TNFα measurement by ELISA (Opteia ELISA kit, BD Biosciences).\nWhen required, BMDMs were pre-incubated for 30 minutes prior to β-glucan training with 1.5 μM Syk inhibitor (R406, Hozel diagnostic, Cologne, Germany), […] Raf-1 inhibitor (GW5074, Sigma), 500 μM MTA (5′-Deoxy-5′-(methylthio)adenosine, Sigma), 6 μM Pargyline (Sigma) or SHIP-1 inhibitor (SHIPi, 3-α-aminocholestane, 3AC, Calbiochem, Darmstad, Germany) at the indicated doses. Inhibitors were also added in the first wash-out, before the resting period.\n(§1) For TNFα normalization, the fold of cells in each condition was calculated as follows: (Live cell number in condition X)/(live cell number in non-trained WT condition). In case of SHIP-1 inhibition experiments, non-treated cells were used as reference. Thus, TNFα per cell number was normalized as (absolute TNFα value)/(fold of cells)."}, "[2]": {"system": "human peripheral blood mononuclear cells (PBMCs)", "test": "Trained immunity in vitro model in human PBMCs, TNFα by ELISA after LPS", "assay_type": "cell-based", "conditions": "beta-glucan-trained human PBMCs, 10 μM 3AC, LPS stimulation", "experimental": "Total PBMCs (5·10^5) were plated in 96-well plates (200-μl final volume) and stimulated with 100 μg/ml β-glucan for 24h. Then, cells were washed and rested 6 days in culture medium. At day 7, PBMCs were stimulated with 1 μg/ml LPS (EK). After 24h, supernatants were collected for TNFα measurement by ELISA (Human TNFα DuoSet, R&D Systems, Abingdon, UK). When required, PBMCs were pre-incubated for 30 minutes prior to β-glucan training with 10 μM 3AC. Inhibitor was also added together with the first wash-out, before the resting period.\nas §1"}, "Candida albicans SC5314": {"system": "Candida albicans SC5314", "test": "In vivo training followed by lethal systemic Candida albicans infection, survival", "set-up": "species or system mouse", "conditions": "0.11 mg 3AC i.p. days -8 and -7, lethal 2·10^6 C. albicans i.v.", "experimental": "Mice were trained with either two intraperitoneal (i.p.) injections of 1 mg β-glucan particles on days −7 and −4 or 2·10^4 Candida albicans intravenously (i.v) on day −7. Sterile PBS was used as control. One week later, mice were challenged with 5 μg E. coli LPS (serotype 055:B5, Sigma) i.p. and blood was collected 60 min later to assess the serum TNFα (Mouse TNFα DuoSet, R&D Systems). Alternatively, mice were lethally infected with 2·10^6 C. albicans i.v. and monitored daily for weight, general health and survival, following the institutional guidance. When required mice were i.p. treated with 0.11 mg 3AC on days −8 and −7.3AC was diluted in PBS 0.3% hydroxypropylcellulose (Sigma), used as control."}, "human PBMCs": {"system": "human PBMCs", "test": "Viability of cells in human PBMC training scheme", "assay_type": "cell-based", "conditions": "non-trained cells in human PBMC experiment (not shown)", "experimental": "To assess cell viability, 3·10^6 total PBMCs were plated in 24-well plates (1200-μl final volume, Corning) and followed the training scheme described here. At day 7, prior to LPS stimulation, cells were collected in PBS/EDTA and stained on ice-cold FACS Buffer for flow cytometry analysis."}},
  "data": [
    {"smiles": "CC(C)CCC[C@@H](C)[C@H]1CC[C@H]2[C@@H]3CC[C@H]4C[C@H](N)CC[C@]4(C)[C@H]3CC[C@]12C", "note": "[3AC, 3α-aminocholestane]", "values": [
      {"measurement": "survival of non-trained BMDMs", "setting": "mouse BMDMs; 5 day-long in vitro culture in the presence of 3AC", "value": "did not survive"},
      {"measurement": "survival of trained BMDMs", "setting": "mouse BMDMs; beta-glucan-trained, in the presence of 3AC", "value": "did not affect survival"},
      {"measurement": "IC50", "setting": "SHIP-1", "value": 13.5, "unit": "µM"},
      {"measurement": "TNF-alpha production in supernatants", "setting": "[1]; beta-glucan-trained BMDMs, different doses of 3AC 30 min before training and after wash-out, LPS challenge", "value": "boosted TNF-alpha production in a dose-dependent manner"},
      {"measurement": "TNF-alpha production in supernatants", "setting": "[2]", "value": "boosted TNF-alpha production"},
      {"measurement": "survival of non-trained mice", "setting": "Candida albicans SC5314", "value": "did not impact on the survival"},
      {"measurement": "survival of Candida-trained mice", "setting": "Candida albicans SC5314; training 2·10^4 C. albicans i.v. day -7", "value": "improved the survival"},
      {"measurement": "toxicity for non-trained cells", "setting": "human PBMCs", "value": "toxic"}
    ]},
    {"smiles": "O=C1Nc2ccc(I)cc2/C1=C/c1cc(Br)c(O)c(Br)c1", "note": "[GW5074]", "values": [
      {"measurement": "boost of trained immunity (TNF alpha) in absence of SHIP-1", "setting": "[1]", "value": "did not affect this process"}
    ]},
    {"smiles": "CSC[C@H]1O[C@@H](n2cnc3c(N)ncnc32)[C@H](O)[C@@H]1O", "note": "[MTA, 5′-Deoxy-5′-(methylthio)adenosine]", "values": [
      {"measurement": "TNF-alpha overproduction in trained LysMΔSHIP-1 BMDMs", "setting": "[1]; 500 μM", "value": "inhibited the increase in TNF-alpha"}
    ]},
    {"smiles": "COc1cc(Nc2ncc(F)c(Nc3ccc4c(n3)NC(=O)C(C)(C)O4)n2)cc(OC)c1OC", "note": "[R406]", "values": [
      {"measurement": "boost of trained immunity (TNF alpha) in absence of SHIP-1", "setting": "[1]; 1.5 μM", "value": "abolished the boost of trained immunity"}
    ]},
    {"smiles": "C#CCN(C)Cc1ccccc1", "note": "[pargyline, Pargyline]", "values": [
      {"measurement": "TNF-alpha overproduction in trained LysMΔSHIP-1 BMDMs", "setting": "[1]; 6 μM", "value": "had no effect"}
    ]}
  ]
}
